Values of other authors in US20220331292A1, “COMPOSITIONS AND METHODS FOR DELIVERY OF PSILOCIN AND PRODRUGS THEREOF” (priority 2021, published 2022).

Experiments:
[1] = molecular target: 5-HT2a serotonin receptor (Homo sapiens, UniProt P28223)
[2] = not given; remark: listed apart in the source
[3] = psilocin after escalating doses of psilocybin

Sequence of 5-HT2a serotonin receptor (P28223 whole entry): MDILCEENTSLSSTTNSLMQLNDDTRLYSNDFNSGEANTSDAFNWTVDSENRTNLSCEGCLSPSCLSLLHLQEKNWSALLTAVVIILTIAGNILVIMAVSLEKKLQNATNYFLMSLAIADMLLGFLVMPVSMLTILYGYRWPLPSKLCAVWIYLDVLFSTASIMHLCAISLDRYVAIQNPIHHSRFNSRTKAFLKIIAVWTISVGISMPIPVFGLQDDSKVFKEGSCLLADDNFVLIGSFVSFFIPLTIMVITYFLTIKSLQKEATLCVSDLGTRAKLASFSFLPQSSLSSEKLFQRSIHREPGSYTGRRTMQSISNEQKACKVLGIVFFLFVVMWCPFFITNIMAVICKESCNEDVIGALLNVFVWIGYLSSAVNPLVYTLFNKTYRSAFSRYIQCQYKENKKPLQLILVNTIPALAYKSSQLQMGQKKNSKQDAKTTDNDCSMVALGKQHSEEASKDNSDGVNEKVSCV

CN(C)CCc1c[nH]c2cccc(O)c12 [Psilocin, psilocin]
binding affinity with 5-HT2a [1]: high binding affinity
half-life [3]: three
pharmacokinetics (linearity) [3]: linear

CN(C)CCc1c[nH]c2cccc(OP(=O)(O)O)c12 [Psilocybin, psilocybin]
share of metabolized psilocybin excreted in the urine as psilocin-O-glucuronide [2]: About 80%
serious physical or psychological events (oral 0.3, 0.45 and 0.6 mg/kg at monthly intervals, during or within 30 days of any dose): no serious physical or psychological events
